Data on 6 compounds can be found in ChEMBL document CHEMBL1201862, “PubChem BioAssay data set” (2004).

Among the test systems are SNB-19; A549; Hs-578T; OVCAR-8; MDA-N; SNB-75; SF-539; OVCAR-3; DU-145; HOP-62; SK-OV-3; 786-0; EKVX; M14; UACC-62; PC-3; SK-MEL-5; SF-268; UO-31; HT-29.
Experiment in all cases: inhibition of tumour cell growth, NCI panel, 48 h

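Cells were grown in 96-well plates and exposed to each compound for 48 hours at five concentrations; endpoints were interpolated linearly between bracketing concentrations, or set to the highest concentration if not reached. GI50 is the concentration that inhibits growth by half.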 The source made the active and inactive calls. Cut-off read from the data, not from the text of the source: active = GI50 up to about 1.1 µM and inactive = higher.

In the case of `C=C(C)C1CCC2(C)C1CCC1(C)C2CCC2C3(C)C4OC(OC4=O)C(C)(C)C3CCC21C` (stereo not given), the GI50 in the assay with SNB-19, in the assay on A549, with Hs-578T, in the assay with OVCAR-8, with MDA-N and in the assay on SNB-75 was > 100 µM (inactive) each time. For the same compound, the GI50 in the assay on SF-539, with OVCAR-3, in the assay with DU-145, in the assay with HOP-62, in the assay on SK-OV-3 and in the assay on 786-0 was > 100 µM (inactive) in each case. In addition, the GI50 in the assay on EKVX, with M14, in the assay with UACC-62, with PC-3, with SK-MEL-5 and with SF-268 was > 100 µM (inactive) each time. Moreover, the GI50 with UO-31 and in the assay on HT-29 was > 100 µM (inactive) in each case.
`O=C1C(N2CCN(c3ccccn3)CC2)=C(Cl)C(=O)c2ncccc21`: the GI50 in the assay on SNB-19 is > 10 µM (inactive); in the assay with A549, > 10 µM (inactive); in the assay with Hs-578T it was > 4.49 µM (inactive); with OVCAR-8, > 4.45 µM (inactive); in the assay on MDA-N it was 1.66 µM (inactive); in the assay on SNB-75 it was > 10 µM (inactive). Besides, the GI50 in the assay on SF-539 was > 10 µM (inactive); in the assay on OVCAR-3, 1.89 µM (inactive); in the assay with DU-145 it was > 6.76 µM (inactive); with HOP-62 it was > 10 µM (inactive); in the assay with SK-OV-3, > 10 µM (inactive); with 786-0 it was 1.78 µM (inactive). The GI50 in the assay with EKVX was > 10 µM (inactive); in the assay on M14, 1.98 µM (inactive); in the assay on UACC-62, 2.54 µM (inactive); in the assay with PC-3 it was > 9.16 µM (inactive); in the assay with SK-MEL-5, 1.79 µM (inactive); in the assay with SF-268, > 6.1 µM (inactive). The GI50 in the assay on UO-31 is 3.27 µM (inactive); with HT-29, 2.88 µM (inactive).
For `CC(/C=C/C=C\C=C\C=C(/C)C(=O)NC(C)CO)=C\C(C)C(O)/C(C)=C/C(C)CCc1ccccc1` (stereo not given), the GI50 with SNB-19 was 15.3 µM (inactive); in the assay with A549, 4.05 µM (inactive); in the assay on Hs-578T it was 19.3 µM (inactive); with OVCAR-8 it was 6.82 µM (inactive); in the assay on MDA-N, 12.2 µM (inactive); with SNB-75 it was 13 µM (inactive). Moreover, the GI50 is 14.1 µM (inactive) in the assay with SF-539; 1.4 µM (inactive) in the assay on OVCAR-3; 13.8 µM (inactive) in the assay with DU-145; 12.4 µM (inactive) in the assay with HOP-62; 16.4 µM (inactive) with SK-OV-3; 13.4 µM (inactive) in the assay with 786-0. In addition, the GI50 is 4.73 µM (inactive) in the assay on EKVX; 8 µM (inactive) in the assay with M14; 8.61 µM (inactive) in the assay with UACC-62; 7.94 µM (inactive) with PC-3; 0.198 µM (active) in the assay on SK-MEL-5; 13.5 µM (inactive) with SF-268. Moreover, the GI50 with UO-31 was 5.11 µM (inactive); in the assay with HT-29 it was 11.6 µM (inactive).
Take `COc1ccc(C(C#N)NC23CC4CC(CC(C4)C2)C3)cc1` (stereo not given): the GI50 in the assay on SNB-19, in the assay with A549, in the assay with Hs-578T, with OVCAR-8, in the assay with MDA-N and in the assay with SNB-75 was > 100 µM (inactive) throughout. The GI50 in the assay with SF-539, with OVCAR-3, with DU-145, with HOP-62, with SK-OV-3 and in the assay on 786-0 was > 100 µM (inactive) in each case. The GI50 with EKVX, with M14, with UACC-62, with PC-3, in the assay with SK-MEL-5 and in the assay on SF-268 was > 100 µM (inactive) each time. Also, the GI50 in the assay on UO-31 and in the assay with HT-29 was > 100 µM (inactive) each time.
Turning to `CC(C)=CC1CC(C)C2(CCC3(C)CC4C(C(=O)CC4(C)O)/C(C=O)=C\CC32)O1` (stereo not given), the GI50 in the assay with SNB-19 was 0.177 µM (active); with A549 it was 0.0685 µM (active); in the assay with Hs-578T it was 0.13 µM (active); in the assay with OVCAR-8 it was 0.0432 µM (active); in the assay with MDA-N it was 0.112 µM (active); in the assay with SNB-75, 0.142 µM (active). The GI50 in the assay with SF-539 was 0.0933 µM (active); in the assay with OVCAR-3, 0.0224 µM (active); in the assay with DU-145 it was 0.129 µM (active); with HOP-62, 0.126 µM (active); with SK-OV-3, 0.148 µM (active); with 786-0, 0.021 µM (active). Besides, the GI50 with EKVX is 0.154 µM (active); in the assay on M14, 0.134 µM (active); in the assay on UACC-62 it was 0.169 µM (active); in the assay on PC-3, 0.038 µM (active); in the assay with SK-MEL-5, 0.216 µM (active); in the assay on SF-268, 0.136 µM (active). Further, the GI50 with UO-31 is 0.0355 µM (active); with HT-29, 0.0312 µM (active).
`Cc1cs/c(=N\C(P(=O)(O)O)P(=O)(O)O)n1C`: the GI50 with SNB-19 is > 100 µM (inactive); in the assay on A549 it was > 100 µM (inactive); with Hs-578T, 10.1 µM (inactive); with OVCAR-8 it was > 100 µM (inactive); with MDA-N, > 100 µM (inactive); in the assay on SNB-75, > 100 µM (inactive). In addition, the GI50 in the assay on SF-539 was > 100 µM (inactive); in the assay with OVCAR-3 it was > 100 µM (inactive); in the assay on DU-145, > 100 µM (inactive); in the assay with HOP-62, > 100 µM (inactive); in the assay with SK-OV-3, > 100 µM (inactive); in the assay with 786-0 it was 90.8 µM (inactive). Besides, the GI50 was > 100 µM (inactive) in the assay with EKVX; > 100 µM (inactive) in the assay on M14; > 100 µM (inactive) in the assay on UACC-62; > 100 µM (inactive) in the assay on PC-3; 86.5 µM (inactive) in the assay on SK-MEL-5; > 100 µM (inactive) with SF-268. Moreover, the GI50 in the assay on UO-31 and with HT-29 was > 100 µM (inactive) each time.
